In series [1] the target is T1, beta adrenergic receptor (guinea pig right atria) (Cavia porcellus, UniProt H0W3H1).
T1 construct: guinea pig right atria and guinea pig tracheal strips mounted in a tissue bath; from tissue; host or cells: guinea pig right atria, spontaneously beating
As to the kind of experiment: Beta-blocking activity in vitro, guinea pig right atria (blockade of isoproterenol rate response). Particulars: Table I; guinea pig right atria, isoproterenol agonist, 60-minute incubation, 37° C.; read-out: PA2 Rt. Atria (converted).

Series [2] deals with beta adrenergic receptor (heart rate response to isoproterenol). Kind of series: Duration and potency of beta-blocking action in vivo, 3-hour infusion in pentobarbital-anesthetized dogs. Particulars: for Recovery Time 50% / Recovery Time 80% / Potency / % I (Percent inhibition of heart rate response to isoproterenol): Table II; for Recovery Time 50% / Recovery Time 80%: after termination of 3-hour infusion; for Potency: infusion rate adjusted so isoproterenol inhibition averaged about 50% at end of 3-hour infusion; for % I (Percent inhibition of heart rate response to isoproterenol): isoproterenol 0.5 μg/kg bolus, 3-hour infusion. On the set-up: species or system dog. On the procedure: The duration of β-blockade was determined in vivo using pentobarbital-anesthetized dogs instrumented for measurement of heart rate using a Beckman cardiotachometer triggered electronically by a phasic aortic blood pressure signal. Both vagus nerves were severed in the cervical region and the animals were mechanically ventilated. The experimental design used employed a 3-hour infusion of test compound. Bolus doses of isoproterenol (0.5 μg/kg) were used to assess the degree of β-blockade and recovery from β-blockade after […] of the infusion. The doses were spaced at 10-minute intervals and were given before, during and following the infusion of test compounds. The infusion rate was adjusted so that at the end of the 3-hour infusion period the degree of isoproterenol inhibition averaged about 50% of control. Following termination of blocker infusion, percent recovery from β-blockade was computed and the time associated with 80% recovery estimated.

Series [3] can be described thus: Enzymatic hydrolysis of beta blockers by dog blood (procedure C). It is filed as in vitro ADME. Particulars: for remaining at 1 h / remaining at 2 h: dog, blood, 37° C.; for remaining at 1 h: read-out: Percent drug remaining, dog blood, 1 HR; for remaining at 2 h: read-out: Percent drug remaining, dog blood, 2 HR. How it is done: (§1) Chemicals--Acetonitrile was "HPLC" grade. Distilled water was used to dissolve the compounds and 0.01N HCl was used to dissolve compounds requiring an acidic pH for dissolution.
(§2) Enzyme Source--Fresh aqueous humor was collected from eyes of dogs using a 23-gauge needle while fresh dog blood was collected into heparinized Vacutainer tubes. Fresh liver was homogenized in 0.9% NaCl using a Potter-Elvehjem Teflon pestle and glass homogenizer making a 25% (W/V) homogenate.
(§3) Incubation Condition--A 0.5 ml aliquot of dog aqueous humor, blood or liver homogenate was incubated with 12.5 μg (0.5 ml) of beta blocker in a Dubnoff shaking metabolic incubator at 37° C. for 60 and 120 min. Denatured tissue controls were prepared by adding 2.0 ml of acetonitrile into 0.5 ml of aqueous humor, blood or liver homogenate to destroy esterase activities prior to addition of the beta blockers. The controls were then incubated at 37° C. for 120 min. After 60 and 120 min, the incubations were terminated by addition of 2 ml of acetonitrile and immediately mixed by a Vortex® to stop esterase activities.
(§4) Sample Processing and Data Analyses--All samples were centrifuged at 4000 RPM for 10 min to sediment denatured proteins. The resultant supernatants were transferred to WISP® vials and analyzed using an HPLC assay developed for beta blockers. The hydrolysis of beta blockers by aqueous humor, blood and liver homogenate was determined by disappearance of the compounds. The extent of enzymatic hydrolysis by each tissue was determined by comparing the amount of each compound (absolute peak area) recovered at each time point to the amount of each compound (absolute peak area) in denatured tissue control and aqueous control samples. The results of these experiments are shown in Tabe III.

Series [4] in a line: Enzymatic hydrolysis of beta blockers by dog liver homogenate (procedure C). It is filed as in vitro ADME. Particulars: for remaining at 1 h / remaining at 2 h: dog, liver homogenate, 37° C.; for remaining at 1 h: read-out: Percent drug remaining, dog liver homogenate, 1 HR; for remaining at 2 h: read-out: Percent drug remaining, dog liver homogenate, 2 HR. On the procedure:
as §1, §2, §3, §4

Series [5] is described as follows: Half-lives of beta blockers in dog whole blood (procedure D). It is filed as in vitro ADME. Particulars: 37° C., read-out: T1/2 dog blood. On the procedure:
(§5) The rate of disappearance of a compound is expressed as the half-life (T1/2), which is the time period in which one half of the initial amount of compound tested disappears. In each experiment, 1 ml of a solution containing 50 μg of the test compound was added to 1 ml of whole blood or 1 ml of a 33% (w/v) liver homogenate. The samples were incubated in a Dubnoff shaking metabolic incubator for 2.5, 5.0, 10.0, 20.0, 30.0 and 60.0 minutes at 37° C. At the designated time periods, the test mixtures were removed from the incubator and transferred to a 0° C. ice bath. Acetonitrile (2 ml) was immediately added and the mixtures were mixed to stop enzymatic hydrolysis. Zero time samples were prepared by adding 2 ml of acetonitrile to denature the proteins prior to addition of the test compounds. After centrifugation to sediment denatured proteins, 2 ml of the supernatant was removed and analyzed by high pressure liquid chromatography, using a mobile phase of 60% acetonitrile/40% 0.05 m sodium phosphate buffer (pH 6.6), a U.V. detector and Waters u Bondapak Phenyl column. The half life of each test compound was determined graphically by plotting the decrease in concentrations as a function of time.

Series [6] is described as follows: Enzymatic hydrolysis of beta blockers by dog aqueous humor (procedure C). It is filed as in vitro ADME. The note with it: for remaining at 1 h / remaining at 2 h: 37° C.; for remaining at 1 h: read-out: Percent drug remaining, dog aqueous humor, 1 HR; for remaining at 2 h: read-out: Percent drug remaining, dog aqueous humor, 2 HR; for half-life: approximate value determined by procedure C, read-out: T1/2 dog aqueous humor. On the procedure: as §1, §2, §3, §4

Series [7] in a line: Half-lives of beta blockers in dog liver homogenate (procedure D). It is filed as in vitro ADME. Particulars: 33% (w/v) homogenate, 37° C., read-out: T1/2 dog liver homogenate. On the procedure: as §5
Series [8] concerns beta adrenergic receptor (guinea pig trachea vs right atria). As to the kind of experiment: Degree of cardioselectivity in vitro, KB trachea/KB atria. The note with it: Table I; ratio greater than one indicates cardioselectivity. How it is done: Each tissue was suspended between a fixed glass rod and a Statham Universal Transducer connected to a Beckman recorder. Atria were allowed to beat spontaneously under a loading tension of approximately 0.5 gm. Intrinsic depressant or stimulant activity was determined for each compound by progressively increasing concentrations in the tissue baths at 60-minute intervals. Tissues were not washed between increments. The maximum concentration showing little or no cardiodepressant activity was chosen for blockade experiments. Changes in rate in response to isoproterenol, a standard β-receptor agonist, were measured in the absence and presence of test compounds. Spiral strips of guinea pig trachea were suspended under 5 gm resting tension and incubated with phentolamine, tropolone and cocaine. Active tension was generated by addition of carbachol (3.0×10^-7 M) and decreases in tension in response to isoproterenol were quantitated. Cumulative concentration-response curves were produced with isoproterenol both before and after 60-minute incubation of test compounds with atria and trachea. […] The blocking potency of test compounds was estimated by computing pA2 values (-log […]) by the method of Furchgott, the Pharmacological Differentiation of Adrenergie Receptors, Ann. […] The degree of cardioselectivity was estimated from the ratio, KB trachea/KB atria (10^(pA.sbsp.2^atria-pA.sbsp.2^trachea)). A ratio greater than one indicates cardioselectivity. Test drugs were dissolved in distilled water and added to the bath (30 ml) in a volume of 10 or 100 μl.

Experimental findings from patent publication US4798892A, “2-hydroxypropylamine heteroaryl ester derivatives” (priority 1986, dated 1989) are described below.

The structures appear in SMILES notation. Counter-ions that a name gives are not always drawn.

T1 sequence (H0W3H1 1-470): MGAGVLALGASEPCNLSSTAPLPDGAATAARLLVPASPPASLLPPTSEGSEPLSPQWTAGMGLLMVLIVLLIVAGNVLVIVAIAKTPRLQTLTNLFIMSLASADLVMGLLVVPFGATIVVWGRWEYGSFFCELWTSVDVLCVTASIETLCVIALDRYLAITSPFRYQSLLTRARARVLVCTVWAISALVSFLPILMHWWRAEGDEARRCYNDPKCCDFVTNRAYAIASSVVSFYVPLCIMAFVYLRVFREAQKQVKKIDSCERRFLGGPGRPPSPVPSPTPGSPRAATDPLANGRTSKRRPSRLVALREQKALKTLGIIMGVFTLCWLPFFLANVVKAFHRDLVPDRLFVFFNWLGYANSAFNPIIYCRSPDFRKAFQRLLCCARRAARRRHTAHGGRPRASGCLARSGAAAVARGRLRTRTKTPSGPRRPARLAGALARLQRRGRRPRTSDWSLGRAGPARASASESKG

On to `CC(C)C(=O)NCC(C)(C)NCC(O)COC(=O)c1ccccc1F` (stereo not shown) [Example V, 3-[1,1-Dimethyl-2-(isopropylcarbonylamino)]ethylamino-2-hydroxypropyl 2-Fluorobenzoate Oxalate Monohydrate], for which, in series [1], the Kb was 0.158 µM. The “experiments did not recover to 80% within 60 min” value in series [2] (Table II footnote c) was 2/6. For the same molecule, in series [2], the “Recovery Time 50%” value was 10 ± 2 min, the “Recovery Time 80%” value was determined as 22 ± 6 min, the Potency was 0.6 mg/kg/180 min and the “% I (Percent inhibition of heart rate response to isoproterenol)” value stood at 62 ± 5%. Further, in series [3], the fraction remaining (as a rule, the share of the starting amount still present when the sample was taken) at 1 h stood at 12% and the share remaining at 2 h came out at 8%. Besides, in series [4], the fraction remaining at 1 h was 0% and the amount remaining at 2 h is 0%. For the same molecule, the half-life in series [5] was 20 min. Also, in series [6], the fraction remaining at 1 h was found to be 75%, the amount remaining at 2 h amounted to 49% and the half-life was roughly 120 min. Moreover, the half-life in series [7] is 3.5 min.

`CC(C)(CNC(=O)Cc1ccccc1)NCC(O)COC(=O)c1ccccc1F` (stereo not shown) [Example VII, 3-[1,1-Dimethyl-2-(benzylcarbonylamino)]ethylamino-2-hydroxypropyl 2-Fluorobenzoate Hydrochloride]: the Kb in series [1] is 0.0398 µM. In addition, in series [2], the “Recovery Time 50%” value is 8 min, the “Recovery Time 80%” value came to 19 min, the Potency is 1.8 mg/kg/180 min and the “% I (Percent inhibition of heart rate response to isoproterenol)” value is 68%. Besides, in series [3], the amount remaining at 1 h worked out at 0% and the share remaining at 2 h stood at 0%. The “hydrolysis in dog blood” value in series [3] (within 60 minutes) is reported as “completely hydrolyzed”. In addition, in series [4], the amount remaining at 1 h came to 0% and the amount remaining at 2 h came out at 0%. Further, the “hydrolysis in liver homogenate” value in series [4] (within 60 minutes) is reported as “completely hydrolyzed”. The half-life in series [5] was determined as 6 min. Besides, in series [6], the amount remaining at 1 h was 69%, the fraction remaining at 2 h was 46% and the half-life is roughly 120 min. Further, the metabolised at 1 h in series [6] (one hour, read-out: hydrolyzed in aqueous humor after one hour) is 31%. Also, in series [6] (two hours, read-out: hydrolyzed in aqueous humor after two hours), the metabolised at 2 h came to 54%. Moreover, in series [7], the half-life amounted to 25 min.

Take `CC(C)(CNC(=O)N1CCOCC1)NCC(O)COC(=O)c1cc(O)cc(O)c1` (stereo not shown) [XXXVIII, 3-[1,1-Dimethyl-2-(1-morpholinocarbonylamino)]ethylamino-2-hydroxypropyl 3,5-Dihydroxybenzoate Oxalate Hemihydrate]: the Kb in series [1] is 0.001 µM. In addition, the “Cardioselectivity KB (Trachea)/KB (Atria)” value in series [8] worked out at 1.

`CC(C)(CNC(N)=O)NCC(O)COC(=O)c1ccccc1F` (stereo not shown) [Example X, 3-[1,1-Dimethyl-2-(aminocarbonylamino)]ethylamino-2-hydroxypropyl 2-Fluorobenzoate]: the Kb in series [1] is 0.02 µM. Further, in series [2], the “Recovery Time 80%” value is given as 21 min, the Potency came to 0.7 mg/kg/180 min and the “% I (Percent inhibition of heart rate response to isoproterenol)” value is given as 49%. In series [3], the fraction remaining at 1 h was determined as 0% and the share remaining at 2 h turned out to be 0%. For the same molecule, in series [4], the fraction remaining at 1 h is 0% and the amount remaining at 2 h is 0%. Moreover, the half-life in series [5] was determined as 15 min. Further, in series [6], the fraction remaining at 1 h worked out at 0% and the amount remaining at 2 h was found to be 0%. The half-life in series [7] is 2.5 min.

Turning to `CC(C)(CNC(=O)Nc1ccccc1)NCC(O)COC(=O)c1ccccc1F` (stereo not shown) [XII, 3-[1,1-Dimethyl-2-(phenylaminocarbonylamino)]ethylamino-2-hydroxypropyl 2-Fluorobenzoate], in series [1], the Kb is 0.0794 µM. Further, the “Cardioselectivity KB (Trachea)/KB (Atria)” value in series [8] is 5.
